From patent US9682082B2, “Combinations of AKT and MEK inhibitor compounds, and methods of use” (GENENTECH, INC., priority 2011, dated 2017)

Legend:
[1] = test system: A2058 (PTEN null/Braf mutant) melanoma model; assay: A2058 melanoma xenograft model, tumor growth inhibition; type: in vivo
Experimental: Methods of measuring TGI are known in the art. In one example method, average tumor volumes are determined and compared from the patient before and after treatment. Tumor volumes can be measured in two dimensions (length and width) using any method in the art, for example UltraCal IV calipers (Fred V. Fowler Company) or by PET (positron emission tomography), or by some other method. The formula tumor volume (mm^3)=(length×width^2)×0.5 can be used. Measuring tumor volumes over multiple time periods can be done using a mixed-modeling Linear Mixed Effects (LME) approach (Pinheiro et al. 2009). This approach can address both repeated measurements (and multiple patients). Cubic regression splines can be used to fit a non-linear profile to the time courses of tumor volume at each dose level. These non-linear profiles can then be related to dose within the mixed model. Tumor growth inhibition as a percent of vehicle can be calculated as a percent area under the fitted curve (AUC) per day in relation to the vehicle, using the following formula:
[formula] Using this formula, a TGI value of 100% indicates tumor stasis, greater than about 1% but less than about 100% indicates tumor growth inhibition, and greater than about 100% indicates tumor regression. Preparation of a Compound of Formula I
The efficacy of representative combinations of the invention were measured in vivo by implanting allografts or xenografts of cancer cells in rodents and treating the tumor-bearing animals with the combinations. Variable results are to be expected depending on the cell line, the presence or absence of certain mutations in the tumor cells, the sequence of administration the compounds, dosing regimen, and other factors. Subject mice were treated with drug(s) or control (Vehicle) and monitored over several weeks or more to measure the time to tumor doubling, log cell kill, and tumor inhibition.

MALME3 cells = assay: Cell viability assay (CellTiter-Glo), MALME3; type: cell-based, human; conditions: MALME3 normal skin fibroblasts
Experimental: (§1) Cells were plated in black, clear-bottomed 384-well plates (Catalog 353962; Becton Dickinson; Franklin Lakes, N.J.) at a density of 1500 cells/well and incubated overnight to 1.5 days at 37° C., 5% CO2. Serial dilutions of GDC-0068, GDC-0973, or both in combination were then added to the cells and incubated for another 96 hours. Cell viability was determined by measuring the cellular adenosine triphosphate (ATP) levels as described in the manufacturer's protocol (CellTiter-Glo Luminescent Cell Viability Assay kit; Catalog G7573; Promega, Madison, Wis.). Luminescence signal was recorded on an EnVision 2101 Multilabel Reader (PerkinElmer; Waltham, Mass.).
(§2) Percentage inhibition was calculated by dividing the relative light unit (RLU) of cells exposed to the GDC-0068 and GCD-0973 combination to the RLU of cells exposed to DMSO and subtracting it from 1, as expressed below: % inhibition=1−(RLUcombination/RLUDMSO)
(§3) BLISS analysis compared the expected % inhibition (E=EGDC-0068+EGDC-0973−EGDC-0068×EGDC-0973) with the experimentally observed % inhibition, EOBS. The BLISS score is the difference (ΔE=EOBS−E) between the expected % inhibition, E, and the experimentally observed inhibition, EOBS.

MALME3M cells = assay: Cell viability assay (CellTiter-Glo), MALME3M; type: cell-based, human; conditions: MALME3M B-RAF V600E metastatic melanoma cell line
Experimental: as §1, §2, §3

`O=C(c1ccc(F)c(F)c1Nc1ccc(I)cc1F)N1CC(O)([C@@H]2CCCCN2)C1` [GDC-0973, (S)-(3,4-difluoro-2-(2-fluoro-4-iodophenylamino)phenyl)(3-hydroxy-3-(piperidin-2-yl)azetidin-1-yl)methanone] was tested, and the “single agent tumor growth inhibition (TGI)” value ([1]; all doses of GDC-0973) was “Comparable single agent tumor growth inhibition (TGI)”, the “single agent effect on cell viability” value (MALME3 cells) was “resistant” and the “single agent effect on cell viability” value (MALME3M cells) was “sensitivity”.

`CC(C)NC[C@@H](C(=O)N1CCN(c2ncnc3c2[C@H](C)C[C@H]3O)CC1)c1ccc(Cl)cc1` [GDC-0068, (S)-2-(4-chlorophenyl)-1-(4-((5R,7R)-7-hydroxy-5-methyl-6,7-dihydro-5H-cyclopenta[d]pyrimidin-4-yl)piperazin-1-yl)-3-(isopropylamino)propan-1-one] was tested, and the “single agent tumor growth inhibition (TGI)” value ([1]; 50 mg/kg of GDC-0068) was “No TGI”, the “single agent tumor growth inhibition (TGI)” value ([1]; higher doses of GDC-0068 (75 and 100 mg/kg)) was “Comparable single agent tumor growth inhibition (TGI)” and the “single agent effect on cell viability” value (MALME3M cells) was “lack of single agent activity”.
